Assay results from article doi:10.1101/2022.01.18.476765v1, “How a Formate Dehydrogenase Responds to Oxygen: Unexpected O2 Insensitivity of an Enzyme Harboring Tungstopterin, Selenocysteine, and [4Fe-4S] Clusters” (biorxiv, 2022).

Experiments:
DvH-FDH2 [1] = molecular target: T1, DvH-FDH2 (Nitratidesulfovibrio vulgaris, UniProt Q728X0); assay: PES/DCPIP reduction at […] nm, global fit of full progress curves; format: biochemical; details: in air; 1 mM PES / 93 μM DCPIP; 50 mM Tris pH 8.0; Km calculated from kcat and kcat/Km
T1 construct: gene fdnG-2; heterodimer, W-bis-pyranopterin, Sec, four [4Fe-4S]; Strep-tag II at C-terminus of large subunit, kept; periplasmic, Tat signal peptide on large subunit; homologous expression in DvH JW2127 (all fdh loci deleted), strain CSR21271; aerobic purification; with Formate dehydrogenase, beta (small) subunit, iron-sulfur
T1 sequence (Q728X0 36-1003): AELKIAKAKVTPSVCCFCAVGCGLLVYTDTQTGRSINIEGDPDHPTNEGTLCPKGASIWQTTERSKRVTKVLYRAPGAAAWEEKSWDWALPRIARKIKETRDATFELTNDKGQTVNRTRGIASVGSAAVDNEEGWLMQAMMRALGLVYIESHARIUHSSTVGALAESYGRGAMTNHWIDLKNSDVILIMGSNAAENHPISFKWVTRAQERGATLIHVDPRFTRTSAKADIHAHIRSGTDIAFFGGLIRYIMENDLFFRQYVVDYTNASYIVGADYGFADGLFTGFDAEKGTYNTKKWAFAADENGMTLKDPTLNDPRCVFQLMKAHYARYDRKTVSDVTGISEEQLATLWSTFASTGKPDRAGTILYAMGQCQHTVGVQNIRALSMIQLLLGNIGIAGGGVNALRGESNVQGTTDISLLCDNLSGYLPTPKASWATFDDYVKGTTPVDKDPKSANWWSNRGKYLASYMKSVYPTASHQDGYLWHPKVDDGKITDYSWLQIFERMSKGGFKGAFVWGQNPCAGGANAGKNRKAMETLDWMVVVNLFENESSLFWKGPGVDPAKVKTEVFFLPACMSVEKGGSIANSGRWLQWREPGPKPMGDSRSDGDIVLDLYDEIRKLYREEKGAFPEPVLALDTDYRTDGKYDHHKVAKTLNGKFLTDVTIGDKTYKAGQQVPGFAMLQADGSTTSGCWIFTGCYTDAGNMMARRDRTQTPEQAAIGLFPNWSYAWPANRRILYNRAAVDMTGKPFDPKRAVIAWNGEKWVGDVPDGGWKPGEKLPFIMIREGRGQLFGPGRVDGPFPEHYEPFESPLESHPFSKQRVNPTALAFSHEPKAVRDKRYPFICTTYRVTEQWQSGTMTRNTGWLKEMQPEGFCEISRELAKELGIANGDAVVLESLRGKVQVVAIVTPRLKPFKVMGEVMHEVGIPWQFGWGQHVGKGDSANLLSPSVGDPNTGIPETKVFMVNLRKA
T1 sequence (Q728X1 1-260 partner): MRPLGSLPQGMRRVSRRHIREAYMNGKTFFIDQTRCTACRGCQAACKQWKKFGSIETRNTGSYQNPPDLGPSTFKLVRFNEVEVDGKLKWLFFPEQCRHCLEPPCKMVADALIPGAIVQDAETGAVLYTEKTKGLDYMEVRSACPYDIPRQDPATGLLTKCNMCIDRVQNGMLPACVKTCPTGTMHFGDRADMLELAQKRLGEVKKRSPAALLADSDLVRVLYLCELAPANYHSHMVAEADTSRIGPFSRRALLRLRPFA

DvH-FDH2 [2] = molecular target: T1, DvH-FDH2; assay: PES/DCPIP reduction at […] nm, inhibition of formate oxidation; format: biochemical; details: formate with PES/DCPIP; 50 mM Tris pH 8.0; with and without O2

| inhibition profile (DvH-FDH2 [2]) | SMILES | Km (DvH-FDH2 [1]) |
| --- | --- | --- |
| – | O=CO [formate] | 4.5 ± 0.4 µM |
| nitrate is far less effective | O=[N+]([O-])O [nitrate] | – |
